Test system: 931267-113-T-J1-PDC KRAS spheroid with HUVEC/MSC, viability
Assay: Anticancer human tumor 931267-113-T-J1-PDC patient-derived colon adenocarcinoma cell line growth inhibition [KRAS2]
Conditions: for IC50: curve of first compound; for viability, T/C: stronger effect = lower value
Text: Multicellular complex tumor spheroid response to RAS pathway inhibitors in combination with a targeted agents in patient-derived cell lines with oncogenic KRAS variants from multiple cancer types
A high-throughput screen of multi-cell type tumor spheroids was designed to identify active combinations of targeted small molecules and KRAS pathway inhibitors. Complex spheroids include a stromal component modeled by human endothelial cells (HUVEC) and fibroblasts modeled by human mesenchymal stem cells (MSCs). The concentration ranges selected for each drug and investigational agent were based upon clinically achievable concentrations if the clinical Cmax of the agent was known.
Compounds. The drugs and investigational agents: BI-3406 (NSC825286), BAY-293 (NSC824723), batoprotafib (TNO155; NSC825523), sotorasib (AMG 510; NSC818433), MRTX1257 (NSC819558), elimusertib (BAY 1895344; NSC800525), molibresib (GSK525762; NSC774829), temuterkib (LY3214996; NSC803410), venetoclax (NSC766270), alisertib (NSC759677), olaparib (NSC753686), talazoparib (NSC767125), erdafitinib (NSC781556), ipatasertib (NSC767898), cabozantinib (NSC761068), nintedanib (NSC756659), abemaciclib (NSC768073), docetaxel (NSC628503), trametinib (NSC758246), and sapanisertib (NSC764658) were obtained from the National Cancer Institute (NCI) Developmental Therapeutics Program Chemical Repository. The FDA-approved anticancer drug set is available from the Developmental Therapeutics Program. […] The stock solutions were prepared in dimethyl sulfoxide (DMSO, Sigma-Aldrich, St. Louis, MO, cat. D2650) at 800-fold the tested concentration and stored at -70 degrees C prior to their use. All drugs and investigational agents were tested over a range starting from a high concentration at or near the clinical Cmax and decreasing in half-log increments. If the clinical Cmax for an agent had not been determined, the highest concentration tested was 10 microM.
Cell Culture. All cells were maintained in an incubator at 37 degrees C and 5% CO2 with 95% humidity. The PDC lines were cultured according to standard operating procedures established by the NCI PDMR (https://pdmr.cancer.gov/sops/default.htm). Briefly, all PDCs were thawed and cultured in Matrigel-coated flasks prepared with a working solution of 1X Ham's F-12 nutrient mix, without supplementation (Invitrogen, Waltham, MA, cat. 11765054), 100 U/mL penicillin-streptomycin (Invitrogen, cat. 15140122), and 2.5% Matrigel (Corning Inc., Corning, NY, cat. 354248) for the first three passages. All PDCs were cultured in complete DMEM/F-12 media containing advanced DMEM/F-12 (Invitrogen, cat. 12634028), 4.9% defined fetal bovine serum, heat inactivated (HyClone Laboratories Inc., Logan, UT, cat. SH30070.03HI), 389 ng/mL hydrocortisone (Sigma-Aldrich, cat. H4001), 9.7 ng/mL human EGF recombinant protein (Invitrogen, cat. PHG0313), 23.4 microg/mL adenine (Sigma-Aldrich, cat. A2786), 97.3 U/mL penicillin-streptomycin (Invitrogen, cat. 15140122), 1.9 mM L-glutamine (Invitrogen, cat. 25030081), and 9.7 microM Y-27632 dihydrochloride (Tocris Bioscience, Bristol, United Kingdom, cat. 1254). The PDCs were cultured in complete DMEM/F12 media without 9.7 microM Y-27632 dihydrochloride for at least two passages prior to the screen. The established cell line HOP-62 was cultured in RPMI 1640 medium, HEPES (Invitrogen, cat. 22400105) with 10% defined fetal bovine serum (HyClone Laboratories Inc., cat. SH30070.03) and 2 mM L-glutamine (Invitrogen, cat. 25030081). The pooled donor HUVEC were cultured in endothelial cell growth medium 2 (PromoCell, Heidelberg, Germany, cat. C-22011) and the hMSC were cultured in mesenchymal stem cell growth medium 2 (PromoCell, cat. C-28009). For all experiments, HUVEC and hMSC were used at passages </=5, while the malignant cell lines were used at passages </=15. […]

[1] = second compound 0.0316 µM, first compound 0.01 µM
[2] = second compound 0.0316 µM, first compound 0.0316 µM
[3] = second compound 0.0316 µM, first compound 0.1 µM
[4] = second compound 0.1 µM, first compound 0.01 µM
[5] = second compound 0.1 µM, first compound 0.0316 µM
[6] = second compound 0.1 µM, first compound 0.1 µM
[7] = second compound 0.316 µM, first compound 0.01 µM
[8] = second compound 0.316 µM, first compound 0.0316 µM
[9] = second compound 0.316 µM, first compound 0.1 µM
[10] = second compound 1 µM, first compound 0.01 µM
[11] = second compound 1 µM, first compound 0.0316 µM
[12] = second compound 1 µM, first compound 0.1 µM
[13] = second compound 3.16 µM, first compound 0.01 µM
[14] = second compound 3.16 µM, first compound 0.0316 µM
[15] = second compound 3.16 µM, first compound 0.1 µM
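Further: compound exposure lasted 7 days before the readout.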
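Wherever viability, T/C is given: 100% = DMSO vehicle control viability.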

| SMILES | IC50 (second compound 0.0316 µM) | IC50 (second compound 0.1 µM) | IC50 (second compound 0.316 µM) | IC50 (second compound 1 µM) | IC50 (second compound 3.16 µM) | viability, T/C [1] | viability, T/C [2] | viability, T/C [3] | viability, T/C [4] | viability, T/C [5] | viability, T/C [6] | viability, T/C [7] | viability, T/C [8] | viability, T/C [9] | viability, T/C [10] | viability, T/C [11] | viability, T/C [12] | viability, T/C [13] | viability, T/C [14] | viability, T/C [15] | further results |
| --- | --- | --- | --- | --- | --- | --- | --- | --- | --- | --- | --- | --- | --- | --- | --- | --- | --- | --- | --- | --- | --- |
| CC(=O)OC12COC1CC(O)C1(C)C(=O)C(O)C3=C(C)C(OC(=O)C(O)C(NC(=O)OC(C)(C)C)c4ccccc4)CC(O)(C(OC(=O)c4ccccc4)C21)C3(C)C (stereo not given) + C=CC(=O)N1CCN(c2nc(OCC3CCCN3C)nc3c2CCN(c2cccc4cccc(C)c24)C3)CC1CC#N | > 3160 nM | > 3160 nM | > 3160 nM | 1300 nM | > 3160 nM | 87.4% | 86.6% | 76.2% | 106% | 99.4% | 89.6% | 126% | 109% | 94.7% | 84.5% | 91.4% | 77% | 83.5% | 104% | 102% | viability, T/C (second compound 0.0316 µM, first compound 0.316 µM): 91.5%; viability, T/C (second compound 0.0316 µM, first compound 1 µM): 128%; viability, T/C (second compound 0.0316 µM, first compound 3.16 µM): 78.6%; viability, T/C (second compound 0.1 µM, first compound 0.316 µM): 82.7%; viability, T/C (second compound 0.1 µM, first compound 1 µM): 72.1%; viability, T/C (second compound 0.1 µM, first compound 3.16 µM): 82.4%; viability, T/C (second compound 0.316 µM, first compound 0.316 µM): 75.8%; viability, T/C (second compound 0.316 µM, first compound 1 µM): 76.7%; viability, T/C (second compound 0.316 µM, first compound 3.16 µM): 75.5%; viability, T/C (second compound 1 µM, first compound 0.316 µM): 86%; viability, T/C (second compound 1 µM, first compound 1 µM): 54.6%; viability, T/C (second compound 1 µM, first compound 3.16 µM): 34.5%; viability, T/C (second compound 3.16 µM, first compound 0.316 µM): 84.8%; viability, T/C (second compound 3.16 µM, first compound 1 µM): 91.7%; viability, T/C (second compound 3.16 µM, first compound 3.16 µM): 90.1% |
| CN(C)C/C=C/C(=O)Nc1cc2c(Nc3ccc(F)c(Cl)c3)ncnc2cc1O[C@H]1CCOC1 + C=CC(=O)N1CCN(c2nc(OCC3CCCN3C)nc3c2CCN(c2cccc4cccc(C)c24)C3)CC1CC#N | > 100 nM | > 100 nM | > 100 nM | > 100 nM | < 0.316 nM | 68.6% | 78.3% | 75.8% | 62.1% | 65.9% | 64.1% | 62.2% | 66.2% | 70.7% | 72.1% | 53.1% | 59.6% | 0.2% | 0.21% | 0.47% | viability, T/C (second compound 0.0316 µM, first compound 0.000316 µM): 82.1%; viability, T/C (second compound 0.0316 µM, first compound 0.001 µM): 86.9%; viability, T/C (second compound 0.0316 µM, first compound 0.00316 µM): 98.2%; viability, T/C (second compound 0.1 µM, first compound 0.000316 µM): 89.2%; viability, T/C (second compound 0.1 µM, first compound 0.001 µM): 98%; viability, T/C (second compound 0.1 µM, first compound 0.00316 µM): 65.7%; viability, T/C (second compound 0.316 µM, first compound 0.000316 µM): 77.6%; viability, T/C (second compound 0.316 µM, first compound 0.001 µM): 70.7%; viability, T/C (second compound 0.316 µM, first compound 0.00316 µM): 69.3%; viability, T/C (second compound 1 µM, first compound 0.000316 µM): 59.1%; viability, T/C (second compound 1 µM, first compound 0.001 µM): 72.6%; viability, T/C (second compound 1 µM, first compound 0.00316 µM): 70%; viability, T/C (second compound 3.16 µM, first compound 0.000316 µM): 0.31%; viability, T/C (second compound 3.16 µM, first compound 0.001 µM): 0.19%; viability, T/C (second compound 3.16 µM, first compound 0.00316 µM): 0.24% |
